Assay results published in BindingDB's records for doi:10.1016/j.bmcl.2011.11.036 (Pfizer, 2011).

assay: Inhibition of mouse Sky kinase assessed as inhibition of src substrate phosphorylation by ELISA

In order of rising IC50:
1. C[C@@H]1CCC(N2CC[C@]3(CN(C(=O)c4cc5ccc(F)cc5[nH]4)c4ccccc43)C2)CN1 (stereo partly drawn)  189 nM
2. C[C@@H]1CCC(N2CC[C@]3(CN(C(=O)c4cc5ccccc5[nH]4)c4ccccc43)C2)CN1 (stereo partly drawn)  246 nM
3. O=C(c1cc2cc(Cl)ccc2[nH]1)N1C[C@]2(CCN(C3CCNC3)C2)c2ccccc21 (stereo partly drawn)  495 nM
4. COc1ccc2[nH]c(C(=O)N3C[C@]4(CCN(C5CCNC5)C4)c4ccccc43)cc2c1 (stereo partly drawn)  501 nM
5. O=C(c1cc2c(Cl)cccc2[nH]1)N1C[C@]2(CCN(C3CCNC3)C2)c2ccccc21 (stereo partly drawn)  560 nM
6. O=C(c1cc2ccc(F)cc2[nH]1)N1C[C@]2(CCN(C3CCNC3)C2)c2ccccc21 (stereo partly drawn)  598 nM
7. Cc1ccc2[nH]c(C(=O)N3C[C@]4(CCN(C5CCNC5)C4)c4ccccc43)cc2c1 (stereo partly drawn)  811 nM
8. COc1ccc2cc(C(=O)N3C[C@]4(CCN(C5CCNC5)C4)c4ccccc43)[nH]c2c1 (stereo partly drawn)  843 nM
9. O=C(c1cc2cc(Cl)ccc2[nH]1)N1C[C@]2(CCN(C3CCCNC3)C2)c2ccccc21 (stereo partly drawn)  1040 nM
10. N#Cc1ccc2cc(C(=O)N3C[C@]4(CCN(C5CCNC5)C4)c4ccccc43)[nH]c2c1 (stereo partly drawn)  1130 nM
11. O=C(c1cc2cc(F)ccc2[nH]1)N1C[C@]2(CCN(C3CNC3)C2)c2ccccc21  1810 nM
12. NC(=O)c1ccc2cc(C(=O)N3C[C@]4(CCN(C5CCNC5)C4)c4ccccc43)[nH]c2c1 (stereo partly drawn)  2200 nM
13. CN1CCC(N2CC[C@]3(CN(C(=O)c4cc5cc(F)ccc5[nH]4)c4ccccc43)C2)CC1  2880 nM
14. O=C(c1cc2cc(F)ccc2[nH]1)N1C[C@]2(CCN(CC3CCCNC3)C2)c2ccccc21 (stereo partly drawn)  4410 nM
15. CCN1CCCC(N2CC[C@]3(CN(C(=O)c4cc5cc(F)ccc5[nH]4)c4ccccc43)C2)C1 (stereo partly drawn)  4930 nM
16. O=C(c1cc2cc(Cl)ccc2[nH]1)N1C[C@]2(CCN(C3CCNCC3)C2)c2ccccc21  8660 nM
17. O=C(c1cc2cc(F)ccc2[nH]1)N1C[C@]2(CCN(C3CCCCC3)C2)c2ccccc21  27900 nM
18. Cc1ccc(N2CC[C@@]3(C2)CN(C(=O)c2cc4cc(F)ccc4[nH]2)c2ccccc23)cn1  37800 nM
